Laboratory results from patent publication US11167037B2, “Antibody drug conjugate platform using bispecific antibody” (SEOUL NATIONAL UNIVERSITY R&DB FOUNDATION, priority 2016, dated 2021).
Residues, ends and D or L forms follow the SMILES beside them. Groups on a side chain read outwards from the residue. *: point of attachment. Biotin = O=C1N[C@H]2[C@H](CS[C@H]2CCCCC(=O)*)N1; X1 = CN1C(=O)C[C@H](C(=O)*)[C@H]1c1cccnc1; PEG6 = NCCOCCOCCOCCOCCOCCOCCC(=O)O

Assays:
[1] = test system: EGFR on the A549 cell surface; test: Flow cytometry on A549 cells; type: cell-based, human
Method: A549 cells were seeded in a v-bottom 96-well plate (Corning) in the final concentration of 4×10^5 cells per each sample. […] After washing with the flow cytometry buffer, the cells were cultured with phycoerythrin (PE)-conjugated streptavidin (BD Biosciences Pharminogen, San Diego, Calif., USA) and FITC-conjugated anti-human IgG (Fc specific) antibody (Thermo Fisher Scientific Pierce) in the dark for 1 hr at 37° C. After additional washing with the same buffer, the cells were resuspended in 200 μL PBS, and analyzed through flow cytometry using FACS Canto II instrument equipped with a 488-nm laser (BD Bioscience, San Jose, Calif., USA). 10,000 cells per measurement were detected and data were analyzed with FlowJo software (TreeStar, Ashland, Oreg., USA).

[2] = mouse, in vivo
Method: Blood samples were collected from intra-orbital vein at 0, 1, 24, 48, 72, 96 and 168 hrs post-injection. The samples were left at the room temperature for 2 hrs until the blood coagulated. Subsequently, serum was acquired by centrifuging at 3500 rpm for 15 min at 4° C.
After washing with 0.05% PBST, HRP-conjugated streptavidin (Thermo Fisher Scientific Pierce) was added and cultured for 1 hr at 37° C. After washing, TMB was added to each well and the absorbance was measured at 650 nm.

[3] = test system: A549 xenograft tumor; test: A549 xenograft tumor growth; type: in vivo, Balb/c-nude mice; conditions: intraperitoneally for five weeks, n=4/group
Method: Six-week-old female Balb/c-nude mice were subcutaneously injected with the A549 (1×10^7 cells) on the left and right flank of each mouse. When the tumor volume reached approximate 150 mm^3, all animals were randomly divided into three groups (n=4/group) and treated for five weeks. […] Then, three times dose of the drugs were injected thrice a week for the following three weeks. Palivizumab was used as an isotype control of the bispecific antibody. DMSO was used as a vehicle control of cotinine-duocarmycin. The tumor volume was measured using digital calipers twice a week in 32 days after injection. Tumor volume was calculated as length×(width)^2×0.5, where the length is the longest axis and the width is the distance perpendicular to the length. Systemic toxicity was evaluated by measuring body weight twice a week. Mice were sacrificed on the day 35 after injection and tumors were dissected and weighted.
To evaluate the in vivo efficacy of ERC6-complexed cotinine-duocarmycin, cetuximab-refractory A549 cells were grafted to mice (n=4/group). […] Drugs were administered to the mice twice a week for two weeks, and then thrice a week for three weeks.

[4] = test system: A549 cells; test: Cell viability assay (Cell Titer-Glo, 72 hrs); type: cell-based, human; conditions: ATP content
Method: A549 cells were seeded in 50 μL RPMI-1640 medium in black-walled 96-well plates (4,000 cells per well) and allowed to adhere overnight at 37° C. in 5% CO2 and humidified atmosphere. […] The cotinine-duocarmycin and antibody dilutes in 50 μL medium were added to each well, and cultured for 72 hrs. After adding Cell Titer-Glo reagent (Promega Corp.) to each well, luminescence signals were measured using a microplate luminometer (PerkinElmer, Waltham, Mass., USA) according to the manufacturer's instructions. All experiments were conducted in triplicate. The relative cell viability was calculated by dividing by the control luminescence signal [% viability=(Test−Background)/(Control−Background)×100].

Row | Molecule | binding activity of cotinine-biotin to A549 cell (streptavidin-PE signal) ([1]; ERC6 present) | binding activity of cotinine-biotin to A549 cell (streptavidin-PE signal) ([1]; mixture with anti-cotinine IgG) | binding activity of cotinine-biotin to A549 cell (streptavidin-PE signal) ([1]; mixture with cetuximab) | half-life [2] | inhibition of tumor growth [3] | cytotoxic / anti-proliferative effect (relative cell viability) [4]
1 | CN1C(=O)C[C@H](C(=O)NCCCC[C@H](NC(=O)[C@H](CO)NC(=O)CNC(=O)CNC(=O)CNC(=O)CNC(=O)[C@H](CCCCNC(=O)CCOCCOCCOCCOCCOCCOCCNC(=O)CCCC[C@@H]2SC[C@@H]3NC(=O)N[C@@H]32)NC(=O)[C@H](CO)NC(=O)CNC(=O)CNC(=O)CNC(=O)CNC(=O)[C@H]2CC(=O)N(C)[C@@H]2c2cccnc2)C(=O)O)[C@H]1c1cccnc1 [cotinine-biotin, cotinine-GGGGSK[(dPEG6)-biotin]GGGGSK-cotinine] (X1-GGGGSK([PEG6-Biotin])GGGGSK(X1)-OH) | showed the binding activity to the A549 cell | did not produce any significant signal | did not produce any significant signal | 33.4 min |  | 
2 | cotinine-[GSK(duocarmycin)]4K-cotinine [cotinine-duocarmycin] |  |  |  |  | could not be selectively delivered to the tumor site and inhibit the tumor growth | potent anti-proliferative effect
3 | COC(=O)c1cc2c([nH]1)C(=O)C=C1N(C(=O)c3cc4cc(OC)c(OC)c(OC)c4[nH]3)C[C@H]3C[C@]123 [free duocarmycin, duocarmycin, reference compound] |  |  |  |  |  | stronger anti-tumor effect than the cotinine-duocarmycin
